The source of these data is patent publication US20170215422A1, “NOVEL CYCLIC DEPSIPEPTIDE DERIVATIVES AND HARMFUL ORGANISM CONTROL AGENTS COMPRISING THE SAME” (priority 2012, published 2017).

Test [1] concerns adult of Ascaridiidae galli. The test can be described thus: Anthelminticidal effect against adult of Ascaridiidae galli (in-vitro test). To be noted: 50 ppm; six adults per culture solution; 41° C.; 24 hr. How it is done:
The activity of compounds was evaluated based on a change in motility of adults of A. galli. Compounds of the present invention were dissolved in dimethyl sulfoxide, and the solution was added to a culture solution of A. galli that had been dissolved in a Ringer's solution to a compound concentration of 50 ppm. Six adults of A. galli were placed per culture solution, followed by culturing at 41° C.

A further test deals with Musca domestica. The test can be described thus: Control effect against Musca domestica adults (sucrose solution on swab). To be noted: 50 ppm in 40% sucrose solution, 4 days. In kind it is in vivo. How it is done: A chemical solution of the compound according to the present invention that had been adjusted with a 40% sucrose solution to a concentration of 50 ppm was adsorbed on a swab, and the swab was placed in a vial. Two adults of Musca domestica grown in a room were released, followed by standing in a room at a room temperature of 25° C. […] When two insects were in a dead or anguished state, the test compound was determined to be effective.

The subject of test [2] is egg of drug-resistant Tetranychus uruticae. The test is described as follows: Ovicidal effect against egg of drug-resistant Tetranychus uruticae. In kind it is in vivo. The settings on record: summary of test results in words. Here is the method: <Miticidal Effect Against Two-Spotted Spider Mite (Drug-Resistant Strain)>
A leaf disk having a diameter of 2.0 cm was cut out from a kidney bean grown in a pot. The leaf disk was inoculated with seven female adult of drug-resistant Tetranychus uruticae, followed by laying in a thermostatic chamber (25° C.). After the elapse of 24 hr, female adults were removed from the leaf disk. The foliage was treated with a chemical solution adjusted to a 50% aqueous acetone solution (0.05% Tween 20 added) containing a compound of the present invention at a predetermined concentration. The foliage was then air-dried and was allowed to stand in a thermostatic chamber (light period 16 hr-dark period 8 hr) (25° C.). Seven days after the chemical solution treatment, the number of remaining eggs and the number of dead mites were counted, and the ovicidal/miticidal rate was calculated by the following equation.
Ovicidal/miticidal rate (%)={(number of remaining eggs+number of dead mites)/(number of remaining eggs+number of dead mites+number of survived insects)}×100

Regarding `CCCCCC1OC(=O)C(C)N(C)C(=O)C(CCCCC)OC(=O)C(C)N(C)C(=O)C(CCCCC)OC(=O)C(C)N(C)C(=O)C(CCCCC)OC(=O)CN(C)C1=O` (stereo not drawn) [Compound 1], the “anthelminticidal activity (adults that stopped automatic motility)” value (from here on “anthelminticidal activity”) in test [1] is on record as “four insects that had stopped automatic motility”. Moreover, in the test with Musca domestica, the “insecticidal activity (two adults dead or anguished = effective)” value (from here on “insecticidal activity”) is on record as “two insects were brought to a dead or anguished state”.
With `CCCCCCC1OC(=O)CN(C)C(=O)C(CCCCC)OC(=O)C(C)N(C)C(=O)C(CCCCC)OC(=O)C(C)N(C)C(=O)C(CCCCC)OC(=O)C(C)N(C)C1=O` [Compound 2, Cycro(-N-Me-L-Gly-(R)-Oct-N-Me-L-Ala-(R)Hep-N-Me-L-Ala-(R)-Hep-N-Me-L-Ala-(R)-Hep-)], the “anthelminticidal activity” value in test [1] is reported as “four insects that had stopped automatic motility”.
Take `CCCCCCCCC1OC(=O)CN(C)C(=O)C(CCCCC)OC(=O)C(C)N(C)C(=O)C(CCCCC)OC(=O)C(C)N(C)C(=O)C(CCCCC)OC(=O)C(C)N(C)C1=O` (stereo not drawn) [Compound 4]: in the test with Musca domestica, the “insecticidal activity” value is recorded as “two insects were brought to a dead or anguished state”.
With `CCCCCC1OC(=O)C(C)N(C)C(=O)C(CCCC)OC(=O)C(C)N(C)C(=O)C(CCCCC)OC(=O)C(C)N(C)C(=O)C(CCCCC)OC(=O)C(C)N(C)C1=O` (stereo not drawn) [Compound 6], in test [1], the “anthelminticidal activity” value is “four insects that had stopped automatic motility”.
For the molecule `CCCCCCCCC1OC(=O)C(C)N(C)C(=O)C(CCCCC)OC(=O)C(C)N(C)C(=O)C(CCCCC)OC(=O)C(C)N(C)C(=O)C(CCCCC)OC(=O)C(C)N(C)C1=O` (stereo not drawn) [Compound 8], the “insecticidal activity” value with Musca domestica is “two insects were brought to a dead or anguished state”.
Regarding `CCCCCCCCCC1OC(=O)C(C)N(C)C(=O)C(CCCCC)OC(=O)C(C)N(C)C(=O)C(CCCCC)OC(=O)C(C)N(C)C(=O)C(CCCCC)OC(=O)C(C)N(C)C1=O` (stereo not drawn) [Compound 9], the “insecticidal activity” value with Musca domestica is “two insects were brought to a dead or anguished state”.
Consider `CCCCCC1OC(=O)C(C)N(C)C(=O)C(CCCCC)OC(=O)C(CC)N(C)C(=O)C(CCCCC)OC(=O)C(C)N(C)C(=O)C(CCCCC)OC(=O)C(C)N(C)C1=O` (stereo not drawn) [Compound 10], for which the “anthelminticidal activity” value in test [1] was “four insects that had stopped automatic motility”.
On to `CCCCCCC1OC(=O)C(CC)N(C)C(=O)C(CCCCC)OC(=O)C(C)N(C)C(=O)C(CCCCC)OC(=O)C(C)N(C)C(=O)C(CCCCC)OC(=O)C(C)N(C)C1=O` (stereo not drawn) [Compound 11], for which, in the test on Musca domestica, the “insecticidal activity” value is “two insects were brought to a dead or anguished state”.
As for `CCCCCCCC1OC(=O)C(CC)N(C)C(=O)C(CCCCC)OC(=O)C(C)N(C)C(=O)C(CCCCC)OC(=O)C(C)N(C)C(=O)C(CCCCC)OC(=O)C(C)N(C)C1=O` (stereo not drawn) [Compound 12], the “insecticidal activity” value with Musca domestica is “two insects were brought to a dead or anguished state”.
On the same count and under the same terms, in the case of `CCCCCCCCC1OC(=O)C(CC)N(C)C(=O)C(CCCCC)OC(=O)C(C)N(C)C(=O)C(CCCCC)OC(=O)C(C)N(C)C(=O)C(CCCCC)OC(=O)C(C)N(C)C1=O` (stereo not drawn) [Compound 13] it was “two insects were brought to a dead or anguished state”; in that of `CCCCCC1OC(=O)C(C)N(C)C(=O)C(CCCCC)OC(=O)C(CCCC)N(C)C(=O)C(CCCCC)OC(=O)C(C)N(C)C(=O)C(CCCCC)OC(=O)C(C)N(C)C1=O` (stereo not drawn) [Compound 15], “two insects were brought to a dead or anguished state”; in that of `CCCCCCCC1OC(=O)C(CCCC)N(C)C(=O)C(CCCCC)OC(=O)C(C)N(C)C(=O)C(CCCCC)OC(=O)C(C)N(C)C(=O)C(CCCCC)OC(=O)C(C)N(C)C1=O` [Compound 16, Cycro(-N-Me-L-Nle (R)-Nna-N-Me-L-Ala-(R)-Hep-N-Me-L-Ala-(R)-Hep-N-Me-L-Ala-(R)-Hep-)], “two insects were brought to a dead or anguished state”.
As for `CCCCCC1OC(=O)C(C)N(C)C(=O)C(CCCCC)OC(=O)C(CCC)N(C)C(=O)C(CCCCC)OC(=O)C(C)N(C)C(=O)C(CCCCC)OC(=O)C(C)N(C)C1=O` (stereo not drawn) [Compound 19], in test [1], the “anthelminticidal activity” value is “four insects that had stopped automatic motility”.
Turning to `CCCCCCCC1OC(=O)C(CCC)N(C)C(=O)C(CCCCC)OC(=O)C(C)N(C)C(=O)C(CCCCC)OC(=O)C(C)N(C)C(=O)C(CCCCC)OC(=O)C(C)N(C)C1=O` (stereo not drawn) [Compound 21], the “insecticidal activity” value with Musca domestica is on record as “two insects were brought to a dead or anguished state”.
Regarding `CCCCCCCCC1OC(=O)C(CCC)N(C)C(=O)C(CCCCC)OC(=O)C(C)N(C)C(=O)C(CCCCC)OC(=O)C(C)N(C)C(=O)C(CCCCC)OC(=O)C(C)N(C)C1=O` (stereo not drawn) [Compound 22], the “insecticidal activity” value in the test with Musca domestica is reported as “two insects were brought to a dead or anguished state”.
The same measure, in the same setting: next, `CCCCCCCCCC1OC(=O)C(CCC)N(C)C(=O)C(CCCCC)OC(=O)C(C)N(C)C(=O)C(CCCCC)OC(=O)C(C)N(C)C(=O)C(CCCCC)OC(=O)C(C)N(C)C1=O` (stereo not drawn) [Compound 23]: “two insects were brought to a dead or anguished state”; `CCCCCCC[C@H]1OC(=O)[C@H](CC(C)C)N(C)C(=O)[C@@H](CCCCC)OC(=O)[C@H](C)N(C)C(=O)[C@H](CCCCC)OC(=O)[C@H](C)N(C)C(=O)[C@@H](CCCCC)OC(=O)[C@H](C)N(C)C1=O` [Compound 28]: “two insects were brought to a dead or anguished state”; `CCCCCCCC[C@H]1OC(=O)[C@H](CC(C)C)N(C)C(=O)[C@@H](CCCCC)OC(=O)[C@H](C)N(C)C(=O)[C@H](CCCCC)OC(=O)[C@H](C)N(C)C(=O)[C@@H](CCCCC)OC(=O)[C@H](C)N(C)C1=O` [Compound 29]: “two insects were brought to a dead or anguished state”.
Still for that read-out and setting: in the case of `CCCCCCCC1OC(=O)C(CC(C)C)N(C)C(=O)C(CCCCC)OC(=O)CN(C)C(=O)C(CCCCC)OC(=O)CN(C)C(=O)C(CCCCC)OC(=O)CN(C)C1=O` (stereo not drawn) [Compound 32] it was “two insects were brought to a dead or anguished state”.
Still for that read-out and setting: in the case of `CCCCCC1OC(=O)C(CC(C)C)N(C)C(=O)C(CCCCC)OC(=O)C(CC(C)C)N(C)C(=O)C(CCCCC)OC(=O)C(CC(C)C)N(C)C(=O)C(CCCCC)OC(=O)CN(C)C1=O` (stereo not drawn) [Compound 33] it was “two insects were brought to a dead or anguished state”.
With `CCCCC[C@H]1OC(=O)CN(C)C(=O)[C@@H](CCCCC)OC(=O)[C@H](CC(C)C)N(C)C(=O)[C@@H](CCCCC)OC(=O)[C@H](CC(C)C)N(C)C(=O)[C@@H](CCCCC)OC(=O)CN(C)C1=O` [Compound 47, Cycro(-N-Me-L-Gly-(R)-Hep-N-Me-L-Gly-(R)-Hep-N-Me-L-Leu-(R)-Hep-N-Me-L-Leu-(R)-Hep-)], in the test with Musca domestica, the “insecticidal activity” value is listed as “two insects were brought to a dead or anguished state”.
Take `CCCCCC1OC(=O)C(CCC)N(C)C(=O)C(CCCCC)OC(=O)C(CC(C)C)N(C)C(=O)C(CCCCC)OC(=O)C(CC(C)C)N(C)C(=O)C(CCCCC)OC(=O)C(CCC)N(C)C1=O` (stereo not drawn) [Compound 53]: the “insecticidal effect against a strain having a lowered susceptibility to acequinocyl” value in test [2] is reported as “high insecticidal effect”.
Same read-out and setting: next, `CCCCCC1OC(=O)C(CCC)N(C)C(=O)C(CCCCC)OC(=O)C(CCC)N(C)C(=O)C(CCCCC)OC(=O)C(CC(C)C)N(C)C(=O)C(CCCCC)OC(=O)C(CCC)N(C)C1=O` (stereo not drawn) [Compound 55]: “high insecticidal effect”; `CCCCCC1OC(=O)C(CC(C)C)N(C)C(=O)C(CCCCC)OC(=O)C(CC(C)C)N(C)C(=O)C(CCCCC)OC(=O)C(CC(C)C)N(C)C(=O)C(CCCCC)OC(=O)C(CCC)N(C)C1=O` (stereo not drawn) [Compound 56]: “high insecticidal effect”.
Turning to `CCCCCC1OC(=O)C(CC(C)C)N(C)C(=O)C(CCCCC)OC(=O)C(CCC)N(C)C(=O)C(CCCCC)OC(=O)C(CCC)N(C)C(=O)C(CCCCC)OC(=O)CN(C)C1=O` (stereo not drawn) [Compound 60], the “insecticidal activity” value with Musca domestica is on record as “two insects were brought to a dead or anguished state”.
As for `CCCCCC1OC(=O)C(C)N(C)C(=O)C(CCCCC)OC(=O)C(C)N(C)C(=O)C(CC(C)C)OC(=O)C(C)N(C)C(=O)C(CCCCC)OC(=O)C(C)N(C)C1=O` (stereo not drawn) [Compound 61], the “anthelminticidal activity” value in test [1] is given as “four insects that had stopped automatic motility”.
